# In article PMC11590367, “Characterization of novel small molecule inhibitors of estrogen receptor-activation function 2 (ER-AF2)” (Breast Cancer Research : BCR, 2024):
# Key:
# Assay type in all cases: cell-based
# [1] = molecular target: T1, ER-SRC3 interaction in MCF7 cells (Homo sapiens, UniProt P03372); experiment: Proximity ligation assay (PLA), MCF7; settings: 10 µM, 48 h, E2 stimulation
# T1 construct: endogenous in cells; host or cells: MCF7 or TamR3 cells
# Description: MCF7 or TamR3 cells were starved for 72 h and then seeded onto PEI coated coverslips in a 6-well plate at 1 × 10^5 cells/well. […] […] […] Coverslips were then permeabilized with 0.05% Triton X-100 for 5 minutes at room temperature. The Duolink In Situ Detection Reagents Red kit from Millipore Sigma (DUO92008) was used for blocking and PLA according to the manufacturer’s protocol. Primary antibodies, Estrogen Receptor alpha antibody (F-10) (sc-8002) and Rabbit anti-SRC3 antibody (A300-348 A), were diluted 1:50 in antibody diluent.
# [2] = molecular target: ER-D538G - SRC3 interaction (Homo sapiens, UniProt P03372, D538G); experiment: Proximity ligation assay, ER-D538G mutant; settings: PLA, 10 µM
# Sequence of ER-D538G - SRC3 interaction (P03372 whole entry D538G): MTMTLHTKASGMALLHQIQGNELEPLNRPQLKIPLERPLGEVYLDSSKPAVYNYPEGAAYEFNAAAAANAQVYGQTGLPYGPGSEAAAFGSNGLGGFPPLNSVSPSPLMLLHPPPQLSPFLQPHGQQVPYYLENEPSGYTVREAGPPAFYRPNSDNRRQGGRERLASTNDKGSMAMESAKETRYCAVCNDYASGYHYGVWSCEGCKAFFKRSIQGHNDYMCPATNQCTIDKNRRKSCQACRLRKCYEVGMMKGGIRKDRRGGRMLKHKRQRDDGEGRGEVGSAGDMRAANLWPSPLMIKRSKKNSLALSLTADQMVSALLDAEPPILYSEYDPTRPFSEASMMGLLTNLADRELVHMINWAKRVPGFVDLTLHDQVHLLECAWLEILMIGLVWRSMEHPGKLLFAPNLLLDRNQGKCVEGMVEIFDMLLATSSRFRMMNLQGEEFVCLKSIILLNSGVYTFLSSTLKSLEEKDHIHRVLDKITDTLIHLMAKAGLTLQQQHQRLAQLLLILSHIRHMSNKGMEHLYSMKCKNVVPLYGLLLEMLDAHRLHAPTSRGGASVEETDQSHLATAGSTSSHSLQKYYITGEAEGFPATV
# Description: MCF7 or TamR3 cells were starved for 72 h and then seeded onto PEI coated coverslips in a 6-well plate at 1 × 10^5 cells/well. For the E2 experiments, the cells were treated the following day with 10 µM of ER-AF2 inhibitor for 24 h, with E2 added 1 h before fixation. […] 24 h post-treatment, cells were fixed in methanol:acetone (3:1). Coverslips were then permeabilized with 0.05% Triton X-100 for 5 minutes at room temperature. The Duolink In Situ Detection Reagents Red kit from Millipore Sigma (DUO92008) was used for blocking and PLA according to the manufacturer’s protocol. Primary antibodies, Estrogen Receptor alpha antibody (F-10) (sc-8002) and Rabbit anti-SRC3 antibody (A300-348 A), were diluted 1:50 in antibody diluent.
# [3] = tested on: ER target genes (cyclinD1, CDC2, E2F, PR, pS2) in MCF7 cells; experiment: Real-time PCR of ER target genes, MCF7; settings: 10 µM, 72 h, E2 stimulation
# Description: Total RNA was extracted using TRIzol, 72 h post-treatment. cDNA synthesis was conducted using the Maxima First Strand cDNA Synthesis Kit for RT-qPCR (Thermo K1641) according to the manufacturer’s protocol. RT-PCR was conducted on the QuantStudio 7 Pro instrument and expression fold change was calculated using 2−ΔΔCt method normalized to 18s.
# T1 sequence (P03372 whole entry): as the sequence (P03372 whole entry D538G) above, with G538D counted along it
smiles,measurement,setting,value
Cc1cccn2c(CNCc3cccc(N(C)C)n3)cnc12 [VPC-260724],"ER-SRC3 interactions (PLA signals per nuclei), MCF7",[1],significantly reduced ER-SRC3 interactions
same,Interaction between SRC3 and ER-D538G,[2],inhibited the interaction
same,"mRNA levels of ER target genes, MCF7",[3],significant decrease
